Biological target: ABCB1 (Homo sapiens, UniProt P08183)
Sequence (P08183 whole entry): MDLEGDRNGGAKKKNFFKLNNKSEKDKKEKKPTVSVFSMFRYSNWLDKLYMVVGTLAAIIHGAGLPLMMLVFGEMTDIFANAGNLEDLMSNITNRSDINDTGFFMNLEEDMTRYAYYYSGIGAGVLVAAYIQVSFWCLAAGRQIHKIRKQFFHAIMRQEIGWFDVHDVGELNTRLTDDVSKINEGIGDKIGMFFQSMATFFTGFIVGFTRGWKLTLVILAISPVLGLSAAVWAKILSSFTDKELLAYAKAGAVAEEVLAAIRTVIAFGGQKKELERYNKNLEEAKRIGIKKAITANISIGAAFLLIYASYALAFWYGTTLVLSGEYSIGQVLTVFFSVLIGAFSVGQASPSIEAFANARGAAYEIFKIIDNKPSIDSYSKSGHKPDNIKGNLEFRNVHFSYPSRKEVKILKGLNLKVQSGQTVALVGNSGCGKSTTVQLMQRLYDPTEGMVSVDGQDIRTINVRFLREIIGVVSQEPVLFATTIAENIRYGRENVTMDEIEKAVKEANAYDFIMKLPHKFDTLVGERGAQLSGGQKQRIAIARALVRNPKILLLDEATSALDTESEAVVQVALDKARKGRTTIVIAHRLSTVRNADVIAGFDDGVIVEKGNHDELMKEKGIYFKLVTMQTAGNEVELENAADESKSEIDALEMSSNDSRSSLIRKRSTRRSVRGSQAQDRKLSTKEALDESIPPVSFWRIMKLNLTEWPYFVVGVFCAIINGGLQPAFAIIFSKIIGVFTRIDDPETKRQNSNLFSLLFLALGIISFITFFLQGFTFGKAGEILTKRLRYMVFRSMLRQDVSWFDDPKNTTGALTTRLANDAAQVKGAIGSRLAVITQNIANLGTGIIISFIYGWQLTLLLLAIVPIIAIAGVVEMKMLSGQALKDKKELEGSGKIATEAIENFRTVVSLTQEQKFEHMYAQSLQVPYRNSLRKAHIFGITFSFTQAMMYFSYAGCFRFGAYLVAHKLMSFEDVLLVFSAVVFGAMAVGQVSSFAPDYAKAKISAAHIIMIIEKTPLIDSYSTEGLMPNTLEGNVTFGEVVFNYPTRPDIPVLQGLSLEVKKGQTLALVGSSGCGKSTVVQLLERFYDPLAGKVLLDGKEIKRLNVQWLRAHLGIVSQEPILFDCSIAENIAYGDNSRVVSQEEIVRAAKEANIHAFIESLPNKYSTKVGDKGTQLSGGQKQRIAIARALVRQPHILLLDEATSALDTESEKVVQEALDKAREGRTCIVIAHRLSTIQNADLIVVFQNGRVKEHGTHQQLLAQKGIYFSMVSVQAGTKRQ

## CC(=O)O[C@H]1C(=O)[C@@]2(C)[C@H]([C@H](OC(=O)c3ccccc3)[C@]3(O)C[C@H](OC(=O)[C@H](O)[C@@H](NC(=O)c4ccccc4)c4ccccc4)C(C)=C1C3(C)C)[C@]1(OC(C)=O)CO[C@@H]1C[C@@H]2O [paclitaxel]
  radiolabelled substrate efflux from ABCB1-overexpressing cells: selonsertib significantly decreased the efflux of [^3H]-paclitaxel in ABCB1-overexpressing cell lines KB-C2 and SW620/Ad300
